The target in this experiment is Carbonic anhydrase 9 (Homo sapiens, UniProt Q16790). The experiment in a line: Inhibition of human CA9 pre-incubated for 10 mins by stopped-flow CO2 hydrase assay.

As for `NS(=O)(=O)c1ccc(CN2C(=O)c3cccc4cccc(c34)C2=O)cc1`, the affinity, expressed as Ki, was 108 nM.

`NS(=O)(=O)c1ccc(CCN2C(=O)c3cccc4cc([N+](=O)[O-])cc(c34)C2=O)cc1` had a Ki of 242 nM. This Ki is about 2.2-fold higher than that of the compound before.

Compound `NS(=O)(=O)c1ccc(-n2c(=O)c3ccccc3c3ccccc3c2=O)cc1` registered a Ki of 93.1 nM.

`NS(=O)(=O)c1ccc(CCn2c(=O)c3ccccc3c3ccccc3c2=O)cc1` displayed a Ki of 301 nM.

Regarding `NS(=O)(=O)c1ccc(-n2c(=O)c3cc4c(=O)n(-c5ccc(S(N)(=O)=O)cc5)c(=O)c4cc3c2=O)cc1`, the Ki was 251 nM.

The compound `NS(=O)(=O)c1ccc(Cn2c(=O)c3cc4c(=O)n(Cc5ccc(S(N)(=O)=O)cc5)c(=O)c4cc3c2=O)cc1` showed an inhibition constant Ki of 639 nM.

Consider `NS(=O)(=O)c1ccc(CCN2C(=O)c3cccc4cccc(c34)C2=O)cc1`, for which the Ki came out at 108 nM.

Compound `NS(=O)(=O)c1ccc(CCn2c(=O)c3cc4c(=O)n(CCc5ccc(S(N)(=O)=O)cc5)c(=O)c4cc3c2=O)cc1` registered a Ki of 2050 nM.

In turn, `NS(=O)(=O)c1ccc(N2C(=O)c3cccc4cc([N+](=O)[O-])cc(c34)C2=O)cc1` registered a Ki of 218 nM.

`NS(=O)(=O)c1ccc(N2C(=O)c3cccc4cccc(c34)C2=O)cc1`: the affinity corresponds to a Ki of 287 nM.

`NS(=O)(=O)CCN1C(=O)c2ccc3c4c(ccc(c24)C1=O)C(=O)N(CCc1ccc(S(N)(=O)=O)cc1)C3=O` came in with a Ki of 25.5 nM. This Ki lies about 11-fold lower than the previous one.

For `NS(=O)(=O)c1ccc(N2C(=O)c3ccc4c5c(ccc(c35)C2=O)C(=O)N(c2ccc(S(N)(=O)=O)cc2)C4=O)cc1`, the Ki amounted to 23.9 nM.

Take `NS(=O)(=O)c1ccc(CN2C(=O)c3cccc4cc([N+](=O)[O-])cc(c34)C2=O)cc1`: the affinity corresponds to a Ki of 251 nM.

In turn, `NS(=O)(=O)c1ccc(Cn2c(=O)c3ccccc3c3ccccc3c2=O)cc1` gave a Ki of 191 nM.

Take `NS(=O)(=O)c1ccc(CN2C(=O)c3ccc4c5c(ccc(c35)C2=O)C(=O)N(Cc2ccc(S(N)(=O)=O)cc2)C4=O)cc1`: affinity was put at a Ki of 2780 nM.

As usually defined, the Ki is a dissociation constant, usually derived from enzyme kinetics or from competition with a known ligand. Lower therefore signals higher affinity.

The values above are taken from ChEMBL document CHEMBL4043158, “Synthesis and carbonic anhydrase inhibition of polycyclic imides incorporating N-benzenesulfonamide moieties” (Bioorg Med Chem, 2017).
